Laboratory results published in ChEMBL document CHEMBL1151515, “Attempts to introduce chemotherapeutic nucleotides into cells: studies on the anti-HIV agent FDT” (Bioorg Med Chem Lett, 1991).
pEC50: −log10 of the molar value.

Experiments:
[1] = Tested for the cytotoxicity against HIV-1 in human T-cell line; type: cell-based; conditions: read-out: TD50 (the source's name)
T-cell line = experiment: Tested for its effective dose required to inhibit the replication of HIV-1 in human T-cell line; type: functional; conditions: read-out: ED50 (the source's name)

Structure (SMILES)	pEC50 (T-cell line)	CC50 [1] [µM]
COC(=O)C(NP(=O)(OCC1OC(n2cc(C)c(=O)[nH]c2=O)CC1F)OCC(Cl)(Cl)Cl)C(C)C (stereo not given)	6.52	> 100
Cc1cn(C2CC(F)C(COP(=O)(OCC(Cl)(Cl)Cl)OCC(Cl)(Cl)Cl)O2)c(=O)[nH]c1=O (stereo not given)	8.00	100
Cc1cn([C@H]2C[C@H](F)[C@@H](CO)O2)c(=O)[nH]c1=O [ALOVUDINE]	8.30	100

Continued, in another order:

pEC50 (T-cell line)	Structure (SMILES)	CC50 [1] [µM]
6.52	COC(=O)C(C)NP(=O)(OCC1OC(n2cc(C)c(=O)[nH]c2=O)CC1F)OCC(Cl)(Cl)Cl (stereo not given)	> 100
5.30	COC(=O)C(Cc1ccccc1)NP(=O)(NC(Cc1ccccc1)C(=O)OC)OCC1OC(n2cc(C)c(=O)[nH]c2=O)CC1F (stereo not given)	> 100
